Reference: US5789625A, “Metal-ligand complex catalyzed processes” (priority 1996, dated 1998)

What was measured:
[1] = cited from earlier work
[2] = Extraction experiment: partitioning of base from butyraldehyde to equimolar aqueous H3PO3 (Example 5, Table A); type: physicochemical
Method: The following series of experiments were performed in order to determine the relationship of the pKa of a base to the effectiveness of the base to remain in the organic phase upon contact with an equimolar aqueous acid solution. In all cases the experiments were performed under nitrogen, unless otherwise specified.
Solutions were prepared by dissolving a quantity of acid or base in solvent so that the final concentration was equal to 0.1 moles/liter. The 1×10^-3 moles/liter solutions were prepared by taking an aliquot of the 0.1 moles/liter solution and diluting to the specified concentration. The 1×10^-5 moles/liter solutions were prepared in the same manner as the 1×10^-3 moles/liter solution with the modification of using an aliquot of the 1×10^-3 moles/liter solution in place of the 0.1 moles/liter solution.
In each extraction experiment, 5 milliliters of base solution in butyraldehyde was added to a clean, dry vial. To this vial was added 5 milliliters of equimolar H3 PO3 solution. The resulting mixture was rapidly shaken for several minutes and then allowed to phase separate. A 1 milliliter aliquot of the aqueous layer was then transferred to a clean, dry vial. To this vial was added 1 milliliter of pH 7 sodium/potassium phosphate buffer and 0.1 milliliter of Tergitol® 15-S-9 surfactant. The solution was shaken vigorously, and an aliquot was analyzed by high performance liquid chromatography for base content. The amount of base was then compared with a dichloromethane solution at the initial concentration. The partition coefficients calculated are for partitioning of the base from the organic phase to the water phase and is defined as K=amount of base in the water phase/amount of base in the organic phase.

[3] = Stability of Ligand F in butyraldehyde solution containing rhodium, by HPLC (Examples 2-4); type: physicochemical; conditions: for concentration of Ligand F remaining: 0.017 grams phosphorous acid added to 12 gram solution, start 0.39; for change in concentration of Ligand F: no added acid or benzimidazole, 200 ppm rhodium, 0.39 wt% Ligand F in butyraldehyde
[4] = base 1 × 10^-3 moles/liter in butyraldehyde, H3PO3 1 × 10^-3 moles/liter
[5] = base 1 × 10^-5 moles/liter in butyraldehyde, H3PO3 1 × 10^-5 moles/liter

O=C1CCCN1Cc1ccccc1 [1-benzyl-2-pyrrolidinone]
pKa of base [1]: -0.7

c1ccc(Cc2ccccn2)cc1 [2-benzylpyridine]
K (amount of base in the water phase/amount of base in the organic phase) [2, 4]: 0.22
K (amount of base in the water phase/amount of base in the organic phase) [2, 5]: 0.30

CC(=O)c1cccnc1 [3-acetylpyridine]
K (amount of base in the water phase/amount of base in the organic phase) [2, 4]: 0.93
K (amount of base in the water phase/amount of base in the organic phase) [2, 5]: 0.00
pKa of base [1]: 3.3

CC(C)(C)c1cc(-c2cc(C(C)(C)C)cc(C(C)(C)C)c2Op2oc3ccccc3c3ccccc3o2)c(Op2oc3ccccc3c3ccccc3o2)c(C(C)(C)C)c1 [Ligand F]
concentration of Ligand F remaining ([3]; 24 hours): 0.12 percent by weight
concentration of Ligand F remaining ([3]; 72 hours): 0.04 percent by weight
change in concentration of Ligand F ([3]; 24 hours): No change
change in concentration of Ligand F ([3]; 72 hours): No change
